In general, IC50 refers to the point on the concentration scale where inhibition reaches its midpoint.

The test has as its target T1, MT1-MMP (Homo sapiens, UniProt P50281).
T1 construct: made in house
Kind of test: In vitro inhibition of MT1-MMP, fluorogenic peptide substrate. The test is classed as biochemical. The following applies: catalytic domain of human MT1-MMP; substrate 10 μM; 37° C. How it is done:
The inhibitory activities of compounds of formula I on MT1-MMP, MMP1 (collagenase 1) and MMP2 (gelatinase A) can be determined as follows:
Stock solutions of substrate (MCA-Pro-Leu-Gly-Leu-Dpa-Ala-Arg-NH2, Knight, C. G., Willenbrock, F., Murphy, G., A novel coumarin-labelled peptide for sensitive continuous assays of the matrix metalloproteinases, FEBS lett., 296, 263-266, (1992)), are prepared in 100% DMSO at a concentration 1.0 mM. Stock solutions of inhibitors are prepared in 100% DMSO. The inhibitor is diluted into the assays from a solution in 100% DMSO, and controls substitute an equal volume of DMSO so that the final DMSO concentration from inhibitor and substrate dilutions in all assays is 6.0%. Assays are performed in assay buffer (150 mM NaCl, 10 mM CaCl2, 50 mM Tris-Cl pH7.5, 0.05% Brij-35) containing 6.0% DMSO once the substrate and inhibitor are diluted into it. The substrate concentration used in the assays is 10 μM. The test is carried out at 37° C. The fluorescence changes are monitored using an excitation wavelength of 320 nm and an emission wavelength of […]. The reaction mixture is added in duplicate to appropriate wells of a 96 well microfluor plate. The reaction mixture is preincubated with the inhibitor for 30 min, the reaction is started by the addition of MMP enzyme and the fluorescence intensity is measured for 10 min. A time point that is on a linear part of the curve is chosen to determine the activity. The inhibition results are expressed as the inhibitor concentrations that produced 50% inhibition (IC50) of the activity in the control (non-inhibited) reaction. In this test, the compounds of the formula I and their pharmacologically acceptable salts have an inhibiting concentration IC50 [μmol/litre] of 0.0001 and 0.030, usually of 0.0002 to 0.010, for MMP2 and an inhibiting concentration IC50 [μmol/litre] of 0.0005 and 0.125, usually of 0.001 to 0.05, for MT1-MMP.
Plasmid: The catalytic domain of the cDNA fragment encoding a full length of human MT1-MMP gene [from Prof. Motoharu Seiki, Institute of Medical Science, The University of Tokyo; Sato, H., Takino, T., Okada, Y., Cao, J., Shinagawa, A., Yamamoto, E. and Seiki, M. Nature (London), 370:61-65, 1994)] is amplified by polymerase chain reaction (PCR). […] The resulting PCR product of a 519-bp fragment is subcloned between the NdeI and BamHI unique sites of pET11a (Stratagene). The sequence of catalytic domain of MT1-MMP (CD-MT1-MMP) is verified by the ABI PRIS™ dye terminator cycle sequencing kit with the ABI PRISM™ 377 DNA sequencer (Perkin Elmer).
Expression and Purification: The subcloned CD-MT1-MMP is used to transfect E. coli strain BL21-[DE3] (Hanahan, D. J. Mol. Biol. 1983; 166(4):557-80) and expressed as insoluble inclusion body materials. Transfectants are grown at 37° C. in 50 ml Luria-Bertani (LB) medium in the presence of 50 µg/ml ampicillin to a cell density of OD600=0.6-1.0, and CD-MT1-MMP production is induced with 1 mM isopropyl-1-D-galactopyranoside (IPTG). After treatments with 5 mg/ml lysozyme and 10 μg/ml DNase I, the inclusion bodies are prepared from the harvested cells by using the detergent buffer containing 0.2 M NaCl, 1% w/v deoxycholic acid, and 1% v/v Nonidet P40. The solubilization is achieved by resuspending the inclusion bodies in the solubilization buffer composed of 6 M urea, 100 mM 2-mercaptoethanol, and 20 mM Tris-Cl, pH8.5. The enzyme is purified and renaturated using 10 ml of a Q-Sepharose (Amersham Pharmacia Biotech) column equilibrated with 5 mM CaCl2, 0.02% v/v NaN3, in 20 mM Tris-Cl pH7.5. After washing with three volumes of the same buffer, the bound proteins are eluted with two volumes of a linear gradient of 0.5-1.0 M NaCl. The collected fractions (1 ml each) are dialyzed for 6 h in equilibrated buffer. Superdex G200 column (1×15 cm) (Amersham Pharmacia) is equilibrated in 20 mM Tris-Cl, pH 7.5, 5 mM CaCl2, 0.02% NaN3. The desalted sample is applied to Superdex G200 column and chromatographed at 0.5 ml/min. […]
Compound `C=CCCOc1ccc(S(=O)(=O)N(Cc2cccc(OC)c2)[C@@H](C(=O)NO)C(C)C)cc1` [Example 13, (R)-2-[(4-but-3-enyloxy-benzenesulfonyl)-(3-methoxy-benzyl)-amino]-N-hydroxy-3-methyl-butyramide] returned an IC50 of 5.5 nM. Compound `COc1cccc(CN([C@H](C)C(=O)NO)S(=O)(=O)c2ccc(OCCCCl)cc2)c1` [Example 15, (R)-2-{[4-(3-chloro-propoxy)-benzenesulfonyl]-(3-methoxy-benzyl)-amino}-N-hydroxy-propionamide] returned an IC50 of 3.7 nM. The IC50 values of the last two compounds are within 1.5-fold of each other. As to `O=C(NO)[C@@H](Cc1ccccc1)N(Cc1ccc(Cl)cc1)S(=O)(=O)c1ccc(OCCCF)cc1` [Example 30, (R)-2-{(4-chloro-benzyl)-[4-(3-fluoro-propoxy)-benzenesulfonyl]-amino}-N-hydroxy-3-phenyl-propionamide], inhibition was half-maximal at 12.7 nM (IC50). For `COc1ccc(CN([C@H](CC(C)C)C(=O)NO)S(=O)(=O)c2ccc(OCCCCF)cc2)cc1` [Example 53, (R)-2-{[4-(4-fluoro-butoxy)-benzenesulfonyl]-(4-methoxy-benzyl)-amino}-N-hydroxy-4-methyl-valeramide] the value was 9.2 nM.

The record behind these values is US8034810B2, “Arylsulfonamido-substituted hydroxamic acid derivatives” (Novartis AG, priority 1999, dated 2011).
